Counter-ions that a name gives are not always drawn. Like-named read-outs stand apart in the source and are kept apart here.
Tests used:
[1] = test system: Vero cells
[2] = test system: SARS-CoV-2-ΔOrf7a-NLuc virus; test: microbe, parasite or virus in culture; format: cell-based; conditions: for activity at 10 µM: Severe acute respiratory syndrome coronavirus 2, Vero, 72 h, read-out: Mean relative luminescence (n=4); for activity at 10 µM / Mean relative luminescence (n=4): 1 = untreated, 0 = total inhibition
[3] = test system: recombinant NLuc; format: biochemical; conditions: for Relative Recombinant NLUC: recombinant NLuc activity relative to DMSO; for Reads Counts per second (read 1) / Reads Counts per second (read 4) / Reads Counts per second (read 3) / Reads Counts per second (read 2): recombinant NLuc; for Reads Counts per second (read 1): first read column; for Reads Counts per second (read 4): fourth read column; for Reads Counts per second (read 3): third read column
[4] = Vero cells, 10 μM, 1 = DMSO-treated infected cells

Row | SMILES | PrestoBlue relative viability ([1]; African green monkey) | activity at 10 µM [2] | PrestoBlue relative viability [1, 4] | Mean relative luminescence (n=4) [2] | Relative Recombinant NLUC [3] | Reads Counts per second (read 1) [3] | Reads Counts per second (read 4) [3] | Reads Counts per second (read 3) [3] | % activity in Vero 100PFU screen [2] | Reads Counts per second (read 2) [3]
1 | CCc1ccc(CCOc2ccc(CC3SC(=O)NC3=O)cc2)nc1 (stereo not shown) [Pioglitazone HCl] | 3.485 | 0.204% |  |  |  |  |  |  |  | 
2 | N[C@@H](CC(=O)N1CCn2c(nnc2C(F)(F)F)C1)Cc1cc(F)c(F)cc1F [Sitagliptin phosphate monohydrate] |  | 0.0141% | 2.5607 |  |  |  |  |  |  | 
3 | CCN1C[C@H](C)n2c(c(O)c3c(=O)n(Cc4ccc(F)c(Cl)c4)nc(C(=O)NC)c32)C1=O [MK-2048] |  |  | 2.267 | 0.000491 |  |  |  |  |  | 
4 | COc1cccc2c1C(=O)c1c(O)c3c(c(O)c1C2=O)C[C@@](O)(C(=O)CO)C[C@@H]3O[C@H]1C[C@H](N)[C@@H](O)[C@H](C)O1 [Epirubicin HCl] | 0.9127 | 2.8% |  |  | 0.8025 | 298948 Counts per second | 310338 Counts per second | 302560 Counts per second | 3.44% | 
5 | COc1ccc(-n2nc(C(N)=O)c3c2C(=O)N(c2ccc(N4CCCCC4=O)cc2)CC3)cc1 [Apixaban] |  | 0.124% | 2.564 |  |  |  |  |  |  | 
6 | CN1CCN(CCCN2c3ccccc3Sc3ccc(C(F)(F)F)cc32)CC1.Cl.Cl [Trifluoperazine 2HCl] |  |  | 0.6995 | 0.05678 | 0.9397 | 358281 Counts per second | 360671 Counts per second | 348422 Counts per second | 7% | 
7 | C=C1/C(=C\C=C2/CCC[C@]3(C)[C@@H]([C@H](C)/C=C/[C@H](C)C(C)C)CC[C@@H]23)C[C@@H](O)C[C@@H]1O [Doxercalciferol] |  | 5.56% | 0.5418 |  | 0.9613 | 361602 Counts per second | 356613 Counts per second | 370984 Counts per second | 8% | 
8 | Oc1cc(Cl)ccc1Oc1ccc(Cl)cc1Cl [Triclosan] |  | 10.6% | 0.5234 |  |  |  |  |  |  | 
9 | NCCC(O)(P(=O)([O-])O)P(=O)([O-])O.[Na+].[Na+] [Pamidronate Disodium] |  |  | 0.5456 | 0.01648 | 0.8313 | 309519 Counts per second | 313941 Counts per second | 313471 Counts per second | 2.29% | 
10 | Cc1cc(Nc2cc(CN3CCOCC3)c3nc(C)c(Cc4ccc(Cl)cc4F)n3n2)n[nH]1 [LY2784544] |  | 0.145% | 0.7859 |  |  |  |  |  |  | 
11 | CC(C)C(=O)OCC(=O)[C@@]12O[C@H](C3CCCCC3)O[C@@H]1C[C@H]1[C@@H]3CCC4=CC(=O)C=C[C@]4(C)[C@H]3[C@@H](O)C[C@@]12C [Ciclesonide] |  | 14.1% | 0.5125 |  |  |  |  |  |  | 
12 | CCCCCCCCc1ccc(CCC(N)(CO)CO)cc1 [Fingolimod (FTY720), Fingolimod] |  | 0.757% | 0.6911 |  | 0.9393 | 354171 Counts per second | 351555 Counts per second | 356587 Counts per second | 3% | 
13 | CN(CCOc1ccc(CC2SC(=O)NC2=O)cc1)c1ccccn1 (stereo not shown) [Rosiglitazone] |  | 0.183% | 3.111 |  |  |  |  |  |  | 
14 | Br.Cc1ccc(Sc2ccccc2N2CCNCC2)c(C)c1 [Vortioxetine (Lu AA21004) HBr] |  |  | 0.509 | 0.007391 | 0.7479 | 280784 Counts per second | 284019 Counts per second | 284246 Counts per second | 1.39% | 
15 | CC[C@@H]([C@H](C)O)n1ncn(-c2ccc(N3CCN(c4ccc(OC[C@@H]5CO[C@@](Cn6cncn6)(c6ccc(F)cc6F)C5)cc4)CC3)cc2)c1=O [Posaconazole] |  | 5.17% | 0.7676 |  | 0.8565 | 325406 Counts per second | 315077 Counts per second | 324458 Counts per second | 6% | 
16 | CC1=NN(c2ccc(C)c(C)c2)C(=O)/C1=N\Nc1cccc(-c2cccc(C(=O)O)c2)c1O [Eltrombopag] |  | 0.991% | 0.7191 |  | 0.8666 | 331875 Counts per second | 322913 Counts per second | 331553 Counts per second | 3.72% | 
17 | Clc1ccccc1C(c1ccccc1)(c1ccccc1)n1ccnc1 [Clotrimazole] |  | 13.9% | 1.057 |  |  |  |  |  |  | 
18 | C[C@]12CC[C@H](O)CC1=CC[C@@H]1[C@@H]2CC[C@]2(C)C(c3cccnc3)=CC[C@@H]12 [Abiraterone] |  | 6.48% | 0.5649 |  | 0.7592 | 279631 Counts per second | 289231 Counts per second | 288897 Counts per second | 6.46% | 289523 Counts per second
19 | CC(=O)[C@]1(O)Cc2c(O)c3c(c(O)c2[C@@H](O[C@H]2C[C@H](N)[C@H](O)[C@H](C)O2)C1)C(=O)c1ccccc1C3=O [Idarubicin HCl] |  | 1.49% | 0.5406 |  | 0.861 | 327538 Counts per second | 318222 Counts per second | 325691 Counts per second | 2.14% | 
20 | Clc1ccc(CCC(Cn2ccnc2)Sc2c(Cl)cccc2Cl)cc1 (stereo not shown) [Butoconazole nitrate] |  | 11.6% | 0.6922 |  |  |  |  |  |  | 
21 | Oc1c(Cl)cc(Cl)c2cccnc12 [Chloroxine] |  | 3.55% | 0.5777 |  | 0.9975 | 380665 Counts per second | 374884 Counts per second | 374596 Counts per second | 6.5% | 
22 | Cc1ccc(Sc2ccccc2N2CCNCC2)c(C)c1 [Vortioxetine] |  | 4.21% | 0.6088 |  | 0.8732 | 326546 Counts per second | 332965 Counts per second | 329264 Counts per second | 6% | 
23 | COc1cc2c(Oc3ccc4[nH]c(C)cc4c3F)ncnc2cc1OCCCN1CCCC1 [Cediranib (AZD217), Cediranib] |  | 2.67% | 0.559 |  | 0.9439 | 350524 Counts per second | 362844 Counts per second | 354116 Counts per second | 3.31% | 
24 | C#C[C@]1(O)CC[C@H]2[C@@H]3CCC4=CCCC[C@@H]4[C@H]3C(=C)C[C@@]21CC [Desogestrel] |  | 14.5% | 0.6657 |  |  |  |  |  |  | 
25 | Nc1cccc2c1CN(C1CCC(=O)NC1=O)C2=O (stereo not shown) [Lenalidomide (CC-5013), Lenalidomide] |  | 0.218% | 2.058 |  |  |  |  |  |  | 
26 | O=C(/C=C/c1cccc(S(=O)(=O)Nc2ccccc2)c1)NO [Belinostat (PXD101), Belinostat] |  | 0.0366% | 0.895 |  | 0.9408 | 351877 Counts per second | 355423 Counts per second | 352055 Counts per second | 4.67% | 362403 Counts per second
27 | CCCCCCCCCCCCCCCC[N+](C)(C)CCN(Cc1ccc(OC)cc1)c1ncccn1 [Thonzonium Bromide] |  | 10.4% | 0.6049 |  |  |  |  |  |  | 
28 | CC[C@@H]1/C=C(\C)C[C@H](C)C[C@H](OC)[C@H]2O[C@@](O)(C(=O)C(=O)N3CCCC[C@H]3C(=O)O[C@H](/C(C)=C/[C@@H]3CC[C@@H](O)[C@H](OC)C3)[C@H](C)[C@@H](O)CC1=O)[C@H](C)C[C@@H]2OC [Ascomycin(FK 520), Ascomycin] |  |  |  |  | 0.8402 | 312887 Counts per second | 314498 Counts per second | 316950 Counts per second | 171% | 325360 Counts per second
29 | NC(=O)c1ccc[n+]([C@@H]2O[C@H](COP(=O)([O-])OP(=O)(O)OC[C@H]3O[C@@H](n4cnc5c(N)ncnc54)[C@H](O)[C@@H]3O)[C@@H](O)[C@H]2O)c1 [NAD+] |  |  |  |  | 1.016 | 385544 Counts per second | 376264 Counts per second | 386401 Counts per second | 164% | 
30 | COc1ccccc1OCC(O)CN1CCN(CC(=O)Nc2c(C)cccc2C)CC1 (stereo not shown) [Ranolazine] |  |  |  |  | 0.9679 | 359507 Counts per second | 367791 Counts per second | 367539 Counts per second | 167% | 
